Laboratory results: ChEMBL document CHEMBL4507319 (2021)

Legend:
[1] = biological target: Sigma intracellular receptor 2 (Homo sapiens, UniProt Q5BJF2); assay: GPCRScan assay: inhibition of Sigma 2; set-up: radioligand conc. used [nm] 5.0, parental cells HEKT
[2] = biological target: Muscarinic acetylcholine receptor M5 (Homo sapiens) (UniProt P08912); conditions: Compound concentration 10.0 uM
[3] = biological target: BDNF/NT-3 growth factors receptor (Homo sapiens) (UniProt Q16620); conditions: Compound concentration 1000.0 nM
[4] = biological target: T1, Serine/threonine-protein kinase 17B (Homo sapiens) (UniProt O94768); conditions: Compound concentration 1000.0 nM
T1 sequence (whole entry): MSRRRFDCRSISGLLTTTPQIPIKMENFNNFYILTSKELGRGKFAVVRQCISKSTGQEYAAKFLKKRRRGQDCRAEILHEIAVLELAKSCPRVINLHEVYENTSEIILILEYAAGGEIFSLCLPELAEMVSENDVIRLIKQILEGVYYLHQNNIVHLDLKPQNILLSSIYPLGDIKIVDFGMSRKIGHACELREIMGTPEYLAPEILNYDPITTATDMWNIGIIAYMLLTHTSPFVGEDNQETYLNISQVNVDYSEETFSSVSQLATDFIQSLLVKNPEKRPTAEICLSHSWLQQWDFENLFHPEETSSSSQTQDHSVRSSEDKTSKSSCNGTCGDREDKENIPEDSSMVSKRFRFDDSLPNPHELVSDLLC

[5] = biological target: Ribosomal protein S6 kinase alpha-2 (Homo sapiens, UniProt Q15349); conditions: Compound concentration 1000.0 nM
Ribosomal protein S6 kinase alpha-2, sequence (Q15349 whole entry): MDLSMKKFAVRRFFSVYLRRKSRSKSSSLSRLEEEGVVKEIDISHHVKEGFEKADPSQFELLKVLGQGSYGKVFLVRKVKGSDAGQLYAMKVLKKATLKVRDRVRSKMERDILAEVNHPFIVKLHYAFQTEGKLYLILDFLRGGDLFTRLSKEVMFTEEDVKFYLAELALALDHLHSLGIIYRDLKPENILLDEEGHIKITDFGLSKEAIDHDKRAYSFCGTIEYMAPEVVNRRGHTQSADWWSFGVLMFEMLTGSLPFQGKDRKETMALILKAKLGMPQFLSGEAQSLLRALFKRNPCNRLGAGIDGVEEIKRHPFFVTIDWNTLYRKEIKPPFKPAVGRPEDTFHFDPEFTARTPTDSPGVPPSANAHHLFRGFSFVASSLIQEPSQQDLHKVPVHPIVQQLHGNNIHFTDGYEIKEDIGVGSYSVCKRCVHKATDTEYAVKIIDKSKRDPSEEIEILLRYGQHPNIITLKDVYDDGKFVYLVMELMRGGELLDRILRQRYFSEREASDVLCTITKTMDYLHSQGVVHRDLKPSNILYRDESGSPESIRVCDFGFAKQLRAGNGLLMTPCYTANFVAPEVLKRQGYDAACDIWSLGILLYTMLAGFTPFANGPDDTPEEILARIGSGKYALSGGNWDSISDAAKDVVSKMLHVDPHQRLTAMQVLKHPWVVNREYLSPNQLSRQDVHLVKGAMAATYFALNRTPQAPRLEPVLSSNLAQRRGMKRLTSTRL

[6] = biological target: Serine/threonine-protein kinase TAO1 (Homo sapiens) (UniProt Q7L7X3); conditions: Compound concentration 1000.0 nM
[7] = biological target: T2, Testis-specific serine/threonine-protein kinase 3 (Homo sapiens) (UniProt Q96PN8); conditions: Compound concentration 1000.0 nM
T2 sequence (whole entry): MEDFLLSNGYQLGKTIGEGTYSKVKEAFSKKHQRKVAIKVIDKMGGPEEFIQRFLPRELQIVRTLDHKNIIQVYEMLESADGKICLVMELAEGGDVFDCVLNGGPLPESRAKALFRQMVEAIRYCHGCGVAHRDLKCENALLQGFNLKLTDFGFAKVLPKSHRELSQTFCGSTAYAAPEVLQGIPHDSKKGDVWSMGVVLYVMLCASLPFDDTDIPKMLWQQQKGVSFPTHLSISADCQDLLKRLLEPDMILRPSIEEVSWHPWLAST

[8] = biological target: 5-hydroxytryptamine receptor 2A (Homo sapiens) (UniProt P28223); conditions: Compound concentration 10.0 uM
5-hydroxytryptamine receptor 2A (Homo sapiens), sequence (P28223 whole entry): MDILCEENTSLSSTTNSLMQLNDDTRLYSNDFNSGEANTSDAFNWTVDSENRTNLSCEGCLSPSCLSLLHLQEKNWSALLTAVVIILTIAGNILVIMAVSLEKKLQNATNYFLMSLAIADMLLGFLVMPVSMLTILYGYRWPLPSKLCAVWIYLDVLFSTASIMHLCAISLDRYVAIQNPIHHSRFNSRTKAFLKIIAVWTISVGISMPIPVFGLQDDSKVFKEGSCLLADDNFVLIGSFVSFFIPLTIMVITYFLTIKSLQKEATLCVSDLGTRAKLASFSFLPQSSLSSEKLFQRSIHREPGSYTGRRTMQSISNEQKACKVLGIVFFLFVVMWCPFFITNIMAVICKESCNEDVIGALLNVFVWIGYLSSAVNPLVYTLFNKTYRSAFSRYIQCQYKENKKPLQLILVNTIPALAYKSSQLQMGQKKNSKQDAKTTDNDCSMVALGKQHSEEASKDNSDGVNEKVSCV

[9] = biological target: Mitogen-activated protein kinase kinase kinase 3 (Homo sapiens) (UniProt Q99759); conditions: Compound concentration 1000.0 nM
Mitogen-activated protein kinase kinase kinase 3 (Homo sapiens), sequence (Q99759 whole entry): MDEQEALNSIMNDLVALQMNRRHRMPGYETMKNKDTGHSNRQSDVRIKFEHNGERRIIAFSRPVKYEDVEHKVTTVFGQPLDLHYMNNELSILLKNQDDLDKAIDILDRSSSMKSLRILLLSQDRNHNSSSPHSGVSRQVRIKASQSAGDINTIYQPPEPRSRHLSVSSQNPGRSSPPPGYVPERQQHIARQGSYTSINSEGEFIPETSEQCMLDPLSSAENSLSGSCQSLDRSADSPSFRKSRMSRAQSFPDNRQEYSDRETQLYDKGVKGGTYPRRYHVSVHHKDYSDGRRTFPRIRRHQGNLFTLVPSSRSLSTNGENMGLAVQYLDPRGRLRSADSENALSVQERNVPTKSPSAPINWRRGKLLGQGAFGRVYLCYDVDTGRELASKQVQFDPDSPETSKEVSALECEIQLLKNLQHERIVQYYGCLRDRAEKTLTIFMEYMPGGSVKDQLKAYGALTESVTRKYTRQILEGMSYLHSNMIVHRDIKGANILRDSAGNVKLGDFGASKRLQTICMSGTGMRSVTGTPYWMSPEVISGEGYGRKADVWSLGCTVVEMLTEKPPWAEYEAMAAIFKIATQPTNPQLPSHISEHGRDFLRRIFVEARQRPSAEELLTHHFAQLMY

[10] = biological target: Mitogen-activated protein kinase kinase kinase 1 (Homo sapiens) (UniProt Q13233); conditions: Compound concentration 1000.0 nM
Mitogen-activated protein kinase kinase kinase 1 (Homo sapiens), sequence (Q13233 whole entry): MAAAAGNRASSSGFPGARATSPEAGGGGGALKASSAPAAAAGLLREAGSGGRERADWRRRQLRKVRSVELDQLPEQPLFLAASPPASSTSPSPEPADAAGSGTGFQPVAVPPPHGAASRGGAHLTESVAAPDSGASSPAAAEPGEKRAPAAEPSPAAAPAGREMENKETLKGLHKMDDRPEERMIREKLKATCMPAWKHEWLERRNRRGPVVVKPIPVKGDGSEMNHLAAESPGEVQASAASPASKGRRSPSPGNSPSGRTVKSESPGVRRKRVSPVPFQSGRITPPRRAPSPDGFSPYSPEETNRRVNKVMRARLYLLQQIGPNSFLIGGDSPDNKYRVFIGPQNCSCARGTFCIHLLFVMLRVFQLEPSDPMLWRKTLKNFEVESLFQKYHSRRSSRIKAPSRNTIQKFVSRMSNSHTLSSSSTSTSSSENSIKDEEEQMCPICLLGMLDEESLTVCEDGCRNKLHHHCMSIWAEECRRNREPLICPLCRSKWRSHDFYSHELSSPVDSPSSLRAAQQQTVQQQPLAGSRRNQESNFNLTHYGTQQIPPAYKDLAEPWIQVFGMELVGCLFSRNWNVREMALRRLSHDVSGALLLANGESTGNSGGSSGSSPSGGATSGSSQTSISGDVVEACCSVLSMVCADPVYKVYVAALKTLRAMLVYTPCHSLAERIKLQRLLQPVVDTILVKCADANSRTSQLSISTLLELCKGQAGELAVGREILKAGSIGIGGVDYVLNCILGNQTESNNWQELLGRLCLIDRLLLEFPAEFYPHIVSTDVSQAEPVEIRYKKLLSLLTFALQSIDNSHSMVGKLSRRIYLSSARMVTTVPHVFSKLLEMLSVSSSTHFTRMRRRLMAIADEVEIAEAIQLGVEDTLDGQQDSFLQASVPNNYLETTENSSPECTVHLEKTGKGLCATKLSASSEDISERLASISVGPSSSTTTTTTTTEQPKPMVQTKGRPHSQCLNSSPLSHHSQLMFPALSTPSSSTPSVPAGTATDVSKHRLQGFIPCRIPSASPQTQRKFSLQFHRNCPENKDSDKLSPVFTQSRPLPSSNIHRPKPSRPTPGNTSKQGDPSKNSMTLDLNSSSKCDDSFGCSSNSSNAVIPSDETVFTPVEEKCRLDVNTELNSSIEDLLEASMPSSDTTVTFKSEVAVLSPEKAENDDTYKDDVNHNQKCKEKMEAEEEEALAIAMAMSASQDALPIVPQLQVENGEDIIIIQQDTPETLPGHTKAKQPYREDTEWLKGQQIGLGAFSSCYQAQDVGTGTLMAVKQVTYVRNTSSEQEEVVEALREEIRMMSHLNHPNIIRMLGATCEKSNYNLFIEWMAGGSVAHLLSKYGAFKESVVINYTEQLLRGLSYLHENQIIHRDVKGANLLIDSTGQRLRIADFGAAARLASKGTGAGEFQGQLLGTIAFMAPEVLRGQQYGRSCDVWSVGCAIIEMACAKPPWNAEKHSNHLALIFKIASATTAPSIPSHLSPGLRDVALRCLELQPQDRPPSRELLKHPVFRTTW

[11] = biological target: T3, Tyrosine-protein kinase TXK (Homo sapiens) (UniProt P42681); conditions: Compound concentration 1000.0 nM
T3 sequence (whole entry): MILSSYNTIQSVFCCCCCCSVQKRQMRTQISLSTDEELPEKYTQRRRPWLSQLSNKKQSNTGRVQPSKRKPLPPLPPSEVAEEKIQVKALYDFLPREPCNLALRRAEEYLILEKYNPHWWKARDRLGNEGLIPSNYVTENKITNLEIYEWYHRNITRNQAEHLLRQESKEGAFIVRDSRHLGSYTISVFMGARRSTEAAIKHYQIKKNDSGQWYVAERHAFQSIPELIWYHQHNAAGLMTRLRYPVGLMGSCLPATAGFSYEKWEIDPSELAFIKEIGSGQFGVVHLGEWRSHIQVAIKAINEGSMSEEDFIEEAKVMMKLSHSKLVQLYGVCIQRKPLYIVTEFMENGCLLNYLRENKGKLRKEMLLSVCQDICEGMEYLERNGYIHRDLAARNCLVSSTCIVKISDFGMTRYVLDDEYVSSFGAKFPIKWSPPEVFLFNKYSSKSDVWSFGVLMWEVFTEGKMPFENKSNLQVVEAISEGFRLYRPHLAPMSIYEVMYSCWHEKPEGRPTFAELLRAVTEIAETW

[12] = biological target: Alpha-1D adrenergic receptor (Homo sapiens) (UniProt P25100); conditions: Compound concentration 10.0 uM
[13] = biological target: Delta-type opioid receptor (Homo sapiens) (UniProt P41143); conditions: Compound concentration 10.0 uM
Delta-type opioid receptor (Homo sapiens), sequence (P41143 whole entry): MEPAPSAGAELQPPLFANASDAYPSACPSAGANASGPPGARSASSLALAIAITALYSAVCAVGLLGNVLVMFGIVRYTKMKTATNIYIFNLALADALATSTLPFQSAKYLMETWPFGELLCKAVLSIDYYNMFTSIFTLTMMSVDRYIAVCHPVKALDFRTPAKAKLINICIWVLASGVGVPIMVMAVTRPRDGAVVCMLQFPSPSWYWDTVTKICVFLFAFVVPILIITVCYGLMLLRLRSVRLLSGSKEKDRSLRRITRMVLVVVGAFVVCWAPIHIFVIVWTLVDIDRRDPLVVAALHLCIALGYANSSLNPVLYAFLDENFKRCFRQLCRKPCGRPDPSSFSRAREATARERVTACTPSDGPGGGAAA

[14] = biological target: 5'-AMP-activated protein kinase catalytic subunit alpha-1 (Homo sapiens, UniProt Q13131); assay: Cellular mechanistic pACC assay using IMR-32 neuroblastoma cells; assay type: cell-based
[15] = biological target: Mitogen-activated protein kinase kinase kinase 13 (Homo sapiens) (UniProt O43283); conditions: Compound concentration 1000.0 nM
Mitogen-activated protein kinase kinase kinase 13 (Homo sapiens), sequence (O43283 whole entry): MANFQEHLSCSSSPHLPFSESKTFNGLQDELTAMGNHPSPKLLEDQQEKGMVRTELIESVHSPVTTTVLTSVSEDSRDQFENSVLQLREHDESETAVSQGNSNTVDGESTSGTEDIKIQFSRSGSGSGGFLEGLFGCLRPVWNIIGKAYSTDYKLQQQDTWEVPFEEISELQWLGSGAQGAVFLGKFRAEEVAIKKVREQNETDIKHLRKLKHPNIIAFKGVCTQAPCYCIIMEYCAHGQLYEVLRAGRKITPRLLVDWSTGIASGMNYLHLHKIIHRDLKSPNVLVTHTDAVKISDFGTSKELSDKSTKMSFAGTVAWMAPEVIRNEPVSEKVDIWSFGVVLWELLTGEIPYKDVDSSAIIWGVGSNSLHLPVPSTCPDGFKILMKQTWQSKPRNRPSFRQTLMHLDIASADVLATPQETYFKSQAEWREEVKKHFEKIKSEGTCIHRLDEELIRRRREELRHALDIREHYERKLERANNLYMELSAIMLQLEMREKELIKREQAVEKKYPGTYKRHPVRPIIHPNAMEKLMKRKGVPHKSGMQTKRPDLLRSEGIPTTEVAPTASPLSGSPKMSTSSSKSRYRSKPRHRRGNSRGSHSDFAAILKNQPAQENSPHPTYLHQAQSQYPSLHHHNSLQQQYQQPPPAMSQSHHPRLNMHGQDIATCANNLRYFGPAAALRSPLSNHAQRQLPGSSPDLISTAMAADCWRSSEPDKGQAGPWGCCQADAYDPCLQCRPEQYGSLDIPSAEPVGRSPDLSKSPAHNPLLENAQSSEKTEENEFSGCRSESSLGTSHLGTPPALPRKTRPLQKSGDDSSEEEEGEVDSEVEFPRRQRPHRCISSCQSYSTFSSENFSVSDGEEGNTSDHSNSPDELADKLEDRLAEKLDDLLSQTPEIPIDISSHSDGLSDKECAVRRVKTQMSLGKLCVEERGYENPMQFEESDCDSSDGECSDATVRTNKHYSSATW

[16] = biological target: Dual specificity testis-specific protein kinase 1 (Homo sapiens) (UniProt Q15569); conditions: Compound concentration 1000.0 nM

Sigma intracellular receptor 2, sequence (Q5BJF2 whole entry): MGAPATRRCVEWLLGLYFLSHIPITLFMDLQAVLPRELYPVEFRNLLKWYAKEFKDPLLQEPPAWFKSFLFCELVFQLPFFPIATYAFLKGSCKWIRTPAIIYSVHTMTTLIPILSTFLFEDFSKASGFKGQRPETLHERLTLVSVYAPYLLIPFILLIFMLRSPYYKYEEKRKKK

SMILES	Ki [1] [nM]	inhibition [2] [%]	residual activity [3] [%]	residual activity [4] [%]	residual activity [5] [%]	residual activity [6] [%]	residual activity [7] [%]	inhibition [8] [%]	residual activity [9] [%]	residual activity [10] [%]	residual activity [11] [%]	inhibition [12] [%]	inhibition [13] [%]	IC50 [14]	residual activity [15] [%]	residual activity [16] [%]
CC1=C(C#N)C(c2ccc3c(c2)c(NC(=O)c2ccccc2C)nn3C)C(C#N)=C(C)N1 [BAY-974]	4470	6.82	72	88	83	100	80	8.41	77	51	100	4.71	17.7	> 30000 nM (not active)	99	96
CCc1ccccc1C(=O)Nc1n[nH]c2c(C)c(F)c(C3C(C#N)=C(C)N(C)C(C)=C3C#N)cc12 [BAY-3827]	2840	17.9	100	100	0	100	100	14.8	100	100	84	2.75	20.5	150 nM	100	96
